The source of these data is paper PMC10708539, “Two Antimicrobial Peptides Derived from Bacillus and Their Properties” (Molecules, 2023).

Ends that are not written are not given here.

The term MIC denotes the lowest concentration that inhibits growth of the organism.

Data set [1] deals with St. aureus ACCC 10499. Type of data set: cell-based, Staphylococcus aureus. How it is done:
(§1) The minimum inhibitory concentrations (MICs) of purified antimicrobial peptides against St. aureus ACCC 10499, B. cereus ACCC 04315, and Sa. enterica ACCC 01996 were determined by the double dilution method. The indicator bacteria cultures were diluted to an OD600 of 0.5 respectively, of which 50 μL of them were added into the sterile 96-well plate, and then 50 μL antimicrobial peptide samples with different concentrations were mixed with each indicator bacterium at a 1:1 ratio. The experiment was performed in three parallel sets. After incubation at 37 °C for 12–18 h, the OD600 value was determined by an Automatic growth curve analyzer (Bioscreen C, Turku, Finland), and the minimum concentration of 100% inhibition of indicator bacteria growth was used as the minimum inhibitory concentration.

The subject of data set [2] is B. cereus ACCC 04315. Type of data set: cell-based, Bacillus cereus. As to the method:
as §1

Data set [3] relates to Sa. enterica ACCC 01996. Description: MIC by double dilution method. Conditions: 96-well plate, culture OD600 0.5 mixed 1:1 with peptide, 37 °C 12–18 h, OD600 read-out, minimum concentration of 100% growth inhibition, three parallel sets. Type of data set: cell-based, Salmonella enterica. As to the method:
as §1

In data set [4] the target is protease K (Parengyodontium album, UniProt P06873). Description: Protease stability of antimicrobial peptides. Type of data set: in vitro ADME. Conditions: mixed 1:1 with 1 mg/mL protease K, water bath 37 °C 1 h, then boiling water bath 5 min; control without protease; read-out inhibition circles against St. aureus ACCC 10499. How it is done: (§2) Appropriate amounts of purified antimicrobial peptide samples were placed in a water bath at 40 °C, 60 °C, 80 °C, 90 °C, and 100 °C for 30 min and high-temperature autoclave sterilization at 121 °C for 15 min respectively, to carry out temperature sensitivity tests. St. aureus ACCC 10499 was used as an indicator bacterium, and untreated samples were used as controls, with three parallel groups for each sample to observe the change in antibacterial activity. Similarly, the pH of the same amount for the antimicrobial peptide samples was adjusted to 2~10 in intervals of 1, and the neutral pH was 7.0 as the control. The samples with a different pH were kept in a water bath at 37 °C for 30 min. St. aureus ACCC 10499 was used as an indicator bacterium to detect the resistance of the antimicrobial peptide to an acid and base. In addition, appropriate antimicrobial peptide samples were mixed with 1 mg/mL solution of protease K, trypsin, and pepsin at 1:1, and were kept in a water bath at 37 °C for 1 h, followed by a boiling water bath for 5 min to inactivate the enzymes. The samples without protease treatment were used as controls and the changes in antibacterial activity were observed.
Sequence of protease K (P06873 106-384): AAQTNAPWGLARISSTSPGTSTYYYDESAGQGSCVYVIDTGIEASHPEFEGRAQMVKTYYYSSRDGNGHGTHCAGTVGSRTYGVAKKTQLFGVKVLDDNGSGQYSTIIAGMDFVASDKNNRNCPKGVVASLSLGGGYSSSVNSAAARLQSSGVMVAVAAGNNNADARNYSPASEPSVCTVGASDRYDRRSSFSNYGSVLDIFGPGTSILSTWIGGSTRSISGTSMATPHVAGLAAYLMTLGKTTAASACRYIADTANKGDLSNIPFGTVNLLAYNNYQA

Data set [5] deals with trypsin. Description: Protease stability of antimicrobial peptides. Conditions: mixed 1:1 with 1 mg/mL trypsin, water bath 37 °C 1 h, then boiling water bath 5 min; control without protease; read-out inhibition circles against St. aureus ACCC 10499. Type of data set: in vitro ADME. How it is done: as §2
Data set [6] has as its system pepsin. Description: Protease stability of antimicrobial peptides. Type of data set: in vitro ADME. As to conditions: mixed 1:1 with 1 mg/mL pepsin, water bath 37 °C 1 h, then boiling water bath 5 min; control without protease; read-out inhibition circles against St. aureus ACCC 10499. How it is done: as §2

Regarding FSGSGSGTAFTLR [Peptide-II], the MIC in data set [1] stood at 16 µg/mL; in data set [2], 64 µg/mL; in data set [3] it was 16 µg/mL; in data set [3] (listed as peptide-II), 8 µg/mL. Besides, the “Antibacterial activity after treatment with protease K” value in data set [4] was “significantly reduced”. Also, the “Antibacterial activity after treatment with trypsin” value in data set [5] is “no significant effect”. In addition, the “Antibacterial activity after treatment with pepsin” value in data set [6] is listed as “no significant effect”.
For the sequence VFLENVLR [Peptide-I], the MIC came out at 64 µg/mL in data set [1], 32 µg/mL in data set [2] and 8 µg/mL in data set [3]. In addition, the “Antibacterial activity after treatment with protease K” value in data set [4] is recorded as “insensitive”. The “Antibacterial activity after treatment with trypsin” value in data set [5] was “insensitive”. In addition, in data set [6], the “Antibacterial activity after treatment with pepsin” value is on record as “insensitive”.
